The values below are quoted from earlier work in patent EP4759820A1, “METHOD FOR PRODUCING PEPTIDE COMPOUND USING STAND-ALONE-TYPE CONDENSING AGENT” (CHUGAI SEIYAKU KABUSHIKI KAISHA, priority 2023, dated 2025).

The conditions of one data set: conjugate acid of the base; water as solvent, 25°C; literature reference given with each value.
The term pKa denotes the negative logarithm of the acid dissociation constant. In the case of `CN1CCOCC1` [N-methylmorpholine], the pKa is given as 7.38.

The same data set, now with this note: representative additives; water as solvent, 25°C; literature reference given with each value.
`NC(=NO)c1cnccn1` [N'-Hydroxypyrazine-2-carboximidamide]: the pKa is given as 12.5.

For the compound `CS(=O)(=O)C(=NO)[S+](N)[O-]` (stereo not shown) [(Hydroxyimino)(methylsulfonyl)methanesulfinamide], the pKa is on record as 9.4.

For the compound `NC(=O)C(=NO)c1cccs1` [2-(Hydroxyimino)-2-(thiophen-2-yl)acetamide], the pKa was 9.4.

Turning to `ON=C1NCCN1` [Imidazolidin-2-one oxime], the pKa was 12.5.

Turning to `ON=C1c2ccccc2-c2ccccc21` [9H-Fluoren-9-one oxime], the pKa is 11.1.

Consider `O=c1c2ncccc2ncn1O` [HODhad, 3-Hydroxypyrido[3,2-d]pyrimidin-4(3H)-one], for which the pKa was 5.8.

Regarding `CCOC(=O)C(=NO)c1ncccn1` [Ethyl 2-(hydroxyimino)-2-(pyrimidin-2-yl)acetate], the pKa is 9.6.

For the compound `NC(=O)C(=NO)c1ncccn1` [2-(Hydroxyimino)-2-(pyrimidin-2-yl)acetamide], the pKa is listed as 9.4.

Take `CCOC(=O)C(=NO)S(=O)(=O)C(F)(F)F` [Ethyl 2-(hydroxyimino)-2-((trifluoromethyl)sulfonyl)acetate]: the pKa is reported as 4.2.

Consider `ON=C1NCCO1` [Oxazolidin-2-one oxime], for which the pKa is 12.5.

For `CCOC(=O)C(NO)C(=O)OCC` [Diethyl 2-(hydroxyamino)malonate], the pKa is reported as 7.2.

Consider `CCOC(=O)C(=NO)S(N)(=O)=O` [Ethyl 2-(hydroxyimino)-2-sulfamoylacetate], for which the pKa is reported as 5.8.

Take `C#CC(=NO)C(N)=O` [2-(Hydroxyimino)but-3-ynamide]: the pKa is 9.4.

As for `ON=C1c2ccccc2C(=NO)c2ccccc21` [Anthracene-9,10-dionedioxime], the pKa is 7.1.

For `C#CC(=NO)C(=O)OCC` [Ethyl 2-(hydroxyimino)but-3-ynoate], the pKa is on record as 9.6.

Take `O=[N+]([O-])C(CCc1ccccc1)=NO` [1-Nitro-3-phenylpropan-1-oneoxime]: the pKa is recorded as 7.4.

As for `CCOC(=O)C(=NO)c1cccs1` [Ethyl 2-(hydroxyimino)-2-(thiophen-2-yl)acetate], the pKa is 9.6.

For the compound `O=[N+]([O-])C(=NO)c1ccccc1` [Nitro(phenyl)methanone oxime], the pKa is reported as 7.6.

As to `NC(=O)C(NO)C(=O)N(O)O` (stereo not shown) [N',N'-Dihydroxy-2-(hydroxyamino)malonamide], the pKa is recorded as 7.7.

In the case of `NC(=O)C(=NO)c1ccc[nH]1` [2-(Hydroxyimino)-2-(1H-pyrrol-2-yl)acetamide], the pKa was 9.4.

Consider `N#CC(=NO)c1ccccc1` [Hydroxyimino-2-phenylacetonitrile], for which the pKa was 8.2.

Regarding `CS(=O)(=O)C(=NO)C(N)=O` [2-(Hydroxyimino)-2-(methylsulfonyl)acetamide], the pKa was 9.4.

With `CCOC(=O)C(=NO)c1ccccn1` [Ethyl 2-(hydroxyimino)-2-(pyridine-2-yl)acetate], the pKa is recorded as 9.6.

For the compound `O=C1CCC(=O)N1O` [HOSu, 1-Hydroxypyrrolidine-2,5-dione], the pKa is recorded as 7.7.

With `C[n+]1ccccc1C(=NO)c1ccccn1.[I-]` [2-((Hydroxyimino)(pyridin-2-yl)methyl)-1-methylpyridin-1-iumiodide], the pKa was 5.6.

Consider `NC(=O)C(=NO)C(N)=O` [2-(Hydroxyimino)malonamide], for which the pKa is recorded as 9.4.

Consider `CCOC(=O)C(=NO)c1ccncc1` [Ethyl 2-(hydroxyimino)-2-(pyridine-4-yl)acetate], for which the pKa is on record as 9.6.

Turning to `O=C1C(=NO)c2ccccc2N1c1ccccc1` [3-(Hydroxyimino)-1-phenylindoline-2-one], the pKa is reported as 9.0.

Regarding `NC(=O)C(=NO)c1nccs1` [2(Hydroxyimino)-2-(thiazol-2-yl)acetamide], the pKa is listed as 8.7.

For the compound `ON=c1[nH]cco1` [Oxazol-2(3H)-one oxime], the pKa is 6.6.

As to `CN(C)[S+]([O-])C(=NO)c1ccccc1` (stereo not shown) [1-(Hydroxyimino)-N,N-dimethyl-1-phenylmethanesulfinamide], the pKa is recorded as 7.4.

For `O=C1Cc2ccccc2N1O` [HOI, 1-Hydroxyindolin-2-one], the pKa is reported as 8.3.

On to `CCOC(=O)C(NO)[N+](=O)[O-]` (stereo not shown) [Ethyl 2-(hydroxyamino)-2-nitroacetate], for which the pKa was 4.7.

Consider `CCOC(=O)C(=NO)c1ccc[nH]1` [Ethyl 2-(hydroxyimino)-(1H-pyrrol-2-yl)acetate], for which the pKa is 9.6.

In the case of `NC(=O)C(=NO)c1cnccn1` [2-(Hydroxyimino)-2-(pyrazin-2-yl)acetamide], the pKa is 9.4.

As for `CCOC(=O)C(=NO)c1ccco1` [Ethyl 2-(furan-2-yl)-2-(hydroxyimino)acetate], the pKa is recorded as 9.6.

Consider `CN1C(=O)C(=NO)c2ccccc21` [3-(Hydroxyimino)-1-methylindolin-2-one], for which the pKa is 9.4.

As to `ON=c1[nH]cc[nH]1` [1,3-Dihydro-2H-imidazol-2-one oxime], the pKa is given as 8.2.

Regarding `CC(=NO)C(C)=NO` [Butane-2,3-dionedioxime], the pKa was 12.1.

Turning to `NC(=O)C(=NO)c1ccco1` [2-(Furan-2-yl)-2-(hydroxyimino)acetamide], the pKa is 9.4.

In the case of `CCOC(=O)C(=NO)c1cnccn1` [Ethyl 2-(hydroxyimino)-2-(pyrazin-2-yl)acetate], the pKa is recorded as 9.4.

On to `CC(C)OC(=O)C(=NO)C(=O)OC(C)C` [Diisopropyl 2-(hydroxyimino)malonate], for which the pKa was 7.2.

On to `NC(=S)C(=NO)c1ncccn1` [2-(Hydroxyimino)-2-(pyrimidin-2-yl)ethanethioamide], for which the pKa is 10.5.

With `CC(C)(C)OC(=O)C(C#N)=NO` [tert-Butyl 2-cyano-2-(hydroxyimino)acetate], the pKa was 4.60.

For the compound `CCOC(=O)C(C#N)=NO` [oxyma, ethyl 2-cyano-2-(hydroxyimino)acetate], the pKa is reported as 4.60.
